Measurements: ChEMBL document CHEMBL1811813, “Synthesis and cytotoxicity of the depsipeptides analogues of callipeltin B” (Bioorg Med Chem Lett, 2011)
Activity calls are given as the source filed them. No cut-off for these calls is given here. Positions of bridges follow the written chain, without caps; N, C: chain ends. Non-standard residues stand in square brackets, D forms with d. Residues, ends and D or L forms follow the SMILES beside them. *: point of attachment. X1 = C[C@@H](OC(C)(C)C)[C@H](NC(=O)[C@@H](NC(=O)[C@@H]1CCC(=O)N1)[C@@H](C)O*)C(=O)O; NHTrityl = c1ccc(C(N*)(c2ccccc2)c2ccccc2)cc1; Pbf = Cc1c(C)c(S(=O)(=O)*)c(C)c2c1OC(C)(C)C2; NMeQ = CN[C@@H](CCC(N)=O)C(=O)O; pGlu = O=C1CC[C@@H](C(=O)O)N1; NMeA = CN[C@@H](C)C(=O)O; Boc = CC(C)(C)OC(=O)*; tBu = CC(C)(C)*

Key:
Type in all cases: functional, cell-based
HeLa [1] = experiment: Cytotoxicity against human HeLa cells assessed as protease release from damaged cell after at 4-1000 uM after 24 hrs by luminometry
HeLa [2] = experiment: Cytotoxicity against human HeLa cells assessed as protease release from damaged cell at 4-100 uM after 24 hrs by luminometry
HeLa [3] = experiment: Cytotoxicity against human HeLa cells after 24 hrs by luminometry

SMILES	Activity (HeLa [2])	also measured
Cc1c(C)c(S(=O)(=O)NC(=N)NCCC[C@H](NC(=O)[C@@H](NC(=O)[C@@H](NC(=O)[C@H](CCC(N)=O)NC(=O)OC(C)(C)C)[C@@H](C)O)[C@@H](C)OC(C)(C)C)C(=O)N[C@@H](CC(C)C)C(=O)N[C@@H](CCC(=O)NC(c2ccccc2)(c2ccccc2)c2ccccc2)C(=O)N[C@@H](Cc2ccc(OC(C)(C)C)cc2)C(=O)N[C@@H](C)C(=O)O)c(C)c2c1OC(C)(C)C2 (Boc-QTT(tBu)R(Pbf)LE(NHTrityl)Y(tBu)A-OH)		Activity (HeLa [1]): inactive
Cc1c(C)c(S(=O)(=O)NC(=N)NCCC[C@@H]2NC(=O)[C@H]([C@@H](C)OC(C)(C)C)NC(=O)[C@@H](NC(=O)[C@@H](N)CCC(N)=O)[C@@H](C)OC(=O)[C@H](C)NC(=O)[C@H](Cc3ccc(OC(C)(C)C)cc3)NC(=O)[C@H](CCC(=O)NC(c3ccccc3)(c3ccccc3)c3ccccc3)NC(=O)[C@H](CC(C)C)NC2=O)c(C)c2c1OC(C)(C)C2 (H-QTT(tBu)R(Pbf)LE(NHTrityl)Y(tBu)A; ester 2-C)	inactive	
Cc1c(C)c(S(=O)(=O)NC(=N)NCCC[C@H](N)C(=O)N[C@@H](CC(C)C)C(=O)N[C@@H](CCC(=O)NC(c2ccccc2)(c2ccccc2)c2ccccc2)C(=O)N[C@@H](Cc2ccc(OC(C)(C)C)cc2)C(=O)N[C@@H](C)C(=O)O[C@H](C)[C@H](NC(=O)[C@@H]2CCC(=O)N2)C(=O)N[C@H](C(=O)O)[C@@H](C)OC(C)(C)C)c(C)c2c1OC(C)(C)C2 (H-R(Pbf)LE(NHTrityl)Y(tBu)A-X1)		IC50 (HeLa [3]): 2260 µM
CC(C)C[C@@H]1NC(=O)[C@H](CCCNC(=N)N)NC(=O)[C@H]([C@@H](C)O)NC(=O)[C@@H](NC(=O)[C@@H]2CCC(=O)N2)[C@@H](C)OC(=O)[C@H](C)NC(=O)[C@H](Cc2ccc(O)cc2)NC(=O)[C@H](CCC(N)=O)NC1=O ([pGlu]TTRLQYA; ester 2-C)	inactive	
CC(C)C[C@@H]1NC(=O)[C@H](C)N(C)C(=O)[C@H]([C@@H](C)O)NC(=O)[C@@H](NC(=O)[C@@H]2CCC(=O)N2)[C@@H](C)OC(=O)[C@H](CCC(N)=O)NC(=O)[C@H](Cc2ccc(O)cc2)NC(=O)[C@H](CCCNC(=N)N)NC1=O ([pGlu]TT[NMeA]LRYQ; ester 2-C)	inactive	
CC(C)C[C@@H]1NC(=O)[C@H](C)N(C)C(=O)[C@H]([C@@H](C)O)NC(=O)[C@@H](NC(=O)[C@@H]2CCC(=O)N2)[C@@H](C)OC(=O)[C@H](CCC(N)=O)N(C)C(=O)[C@H](Cc2ccc(O)cc2)NC(=O)[C@H](CCCNC(=N)N)NC1=O ([pGlu]TT[NMeA]LRY[NMeQ]; ester 2-C)	inactive	
C=C(C)[C@H]1Cc2c(ccc3c2O[C@@H]2COc4cc(OC)c(OC)cc4[C@@H]2C3=O)O1 [ROTENONE]		IC50 (HeLa [3]): 78 µM
